Reference: US9737505B2, “Prodrug of 1,1′-(1,6-dioxo-1,6-hexanediyl)bis-D-proline” (GlaxoSmithKline Intellectual Property Development Limited, priority 2014, dated 2017)
Read-outs that look alike come from different tables or passages of the source.

Columns and labels:
CYP1A2 = biological target: T1, CYP1A2 (Homo sapiens, UniProt P05177); assay: Cytochrome p450 inhibition assay (bactosomes, fluorogenic substrate ER); assay type: biochemical; conditions: recombinant human CYP (Cypex bactosomes)
T1 construct: purchased Cypex; host or cells: bactosomes (bacterial membranes)
T1 sequence (P05177 1-516): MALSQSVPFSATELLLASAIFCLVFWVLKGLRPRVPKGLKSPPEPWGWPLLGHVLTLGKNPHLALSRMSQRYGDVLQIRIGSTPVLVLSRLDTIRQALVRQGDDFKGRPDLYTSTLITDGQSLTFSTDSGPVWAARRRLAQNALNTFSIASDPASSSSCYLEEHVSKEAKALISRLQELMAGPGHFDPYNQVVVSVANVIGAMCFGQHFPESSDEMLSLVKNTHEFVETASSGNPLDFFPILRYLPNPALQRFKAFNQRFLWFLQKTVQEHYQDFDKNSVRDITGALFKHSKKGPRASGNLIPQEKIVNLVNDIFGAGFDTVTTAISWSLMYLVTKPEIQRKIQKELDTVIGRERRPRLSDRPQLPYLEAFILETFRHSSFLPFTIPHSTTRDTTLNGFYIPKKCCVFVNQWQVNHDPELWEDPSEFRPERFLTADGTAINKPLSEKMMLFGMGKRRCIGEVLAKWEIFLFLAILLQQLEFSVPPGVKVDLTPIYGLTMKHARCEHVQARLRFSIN
Method: (§1) The assay was designed to evaluate inhibition on cytochrome P450 (CYP) 3A4, 2C9, 2C19, 1A2 and 2D6 enzymes from bactosomes source using fluorogenic substrates. Compound (compound of Formula (I) or Comparator Compound) was dissolved in methanol at 1.65 mM. Daughter solutions were prepared in methanol at 660, 264, 106, 42, 17, 6.8, 2.7, 1.1 and 0.43 μM. NADPH cofactor was prepared with Glucose-6-phosphate (7.8 mg), Glucose-6-phosphate dehydrogenase (6 units), NADP (1.7 mg) per 1 mL in NaHCO3 2%. Substrate preparation was as follows: • 7-Methoxy-4-triFluoromethyl Coumarin-3-Acetic acid ethyl ester (FCA): 12.5 mM in acetonitrile • EthoxyResorufin (ER): 0.05 mM in acetonitrile • 4-MethylaminoMethyl-7-Methoxy Coumarin (MMC): 2.5 mM in methanol • 3-Butyryl-7Methoxy Coumarin (BMC): 2.5 mM in DMSO • 7-BenzyloxyQuinoline (7BQ): 2.5 mM in acetonitrile • DiEthoxyFluorescein (DEF): 0.1 mM in acetonitrile Bactosomes (Cypex source) at the concentration of 10 mg of protein per ml were diluted in phosphate buffer 50 mM pH7.4: • 0.33 ml of bactosomes CYP2C9 with 23.8 ml of buffer and 0.11 ml of FCA • 0.33 ml of bactosomes CYP1A2 with 23.6 ml of buffer and 0.275 ml of ER • 0.33 ml of bactosomes CYP2D6 with 23.8 ml of buffer and 0.11 ml of MMC • 0.33 ml of bactosomes CYP2C19 with 23.8 ml of buffer and 0.11 ml of BMC • 0.33 ml of bactosomes CYP3[…] with 23.6 ml of buffer and 0.275 ml of 7BQ • 0.33 ml of bactosomes CYP3[…] with 23.6 ml of buffer and 0.275 ml of DEF Pre-Incubation consisted in mixing 5 μl of compound solution with 220 μl diluted bactosomes and warming it at 37° C. for 10 min. Incubation was started with the addition of 25 μl of NADPH. […]

[1] = Solubility in aqueous media; assay type: physicochemical; conditions: for solubility at 4 h: thermodynamic from solid, read-out: Solubility at 4 hour timepoint
Method: A known quantity of the compound of Formula (I) was weighed into a suitable vessel (e.g. a screw capped clear glass vial) and a known volume of the required media added (e.g. Simulated Gastric Fluid pH 1.6[SGF], Simulated Fed State Intestinal Fluid pH 6.5 [FeSSIF], Simulated Fasted State Intestinal Fluid pH 6.5 [FaSSIF], Water [Purified Water], or Britton-Robinson buffer). The compound was wetted with the media by vortex mixing for 30 seconds to 1 minute. The sample was then visually observed to ensure that undissolved solid remained present. The sample was transferred to a gentle mixer (such as a roller mixer) and allowed to agitate until the desired time point was reached. At appropriate times the sample was reassessed visually. If all the solid had dissolved the solubility was recorded as >x mg/ml where x is the known weight used divided by the volume added. If undissolved solid remained a portion of the sample was taken and centrifuged to remove the solid leaving a clear supernatant. The supernatant was diluted volumetrically with a suitable diluent to provide an analytical sample of suitable concentration for analysis. This diluted sample was then analysed by a suitable method such as HPLC against a standard(s) of known concentration. The solubility of the compound can then be calculated using a knowledge of the concentration of the standard, the relative response (e.g. peak areas) of the standard and the analytical sample described, and the dilution of the analytical sample.

[2] = Physical stability (hydrolysis) in phosphate buffer at various pHs; assay type: physicochemical; conditions: acidic environment (pH less than 7.0), room temperature
Method: The assay was designed for determining physical stability of compound in buffer at various pHs. Compound of Formula (I) was dissolved in DMSO at 1 mg/ml. Phosphate buffer (PBS) was prepared by mixing K2HPO4 50 mM and KH2PO4 50 mM solutions to obtain 4 buffers at pH 6.0, 7.0, 7.5, 8.0.
Stability studies were conducted at room temperature, and were started by the addition of 8 μl of DMSO solution to 792 μl of PBS 50 mM at pH 6.0, 7.0, 7.5 or 8.0 (1% DMSO). 75 μl of mixture was taken at 0, 1, 2, 4 and 24 h and 225 μl acetonitrile containing internal standard was added.
2 μl of samples were injected into the liquid chromatography system and eluted with a Ascentis C18 column (50×2.1 mm id, 2.7 μm) and with 0.1% formic acid in water (A) and 0.1% formic acid in acetonitrile (B), using the following elution 2 min gradient: 5 to 95% B over 1.2 min, 95% B over 0.6 min and 0.1 min for re-equilibrate column, at 0.5 mL/min at 50° C.
Samples were analysed by Mass Spectrometry with an electrospray source and in positive mode and with following mass transitions: • Compound of Formula (I): 657 to 384 • Monoester of CPHPC: 499 to 226 • CPHPC: 341 to 226

[3] = Intestinal microsomal stability; assay type: in vitro ADME; conditions: 37° C., even after 60 minutes
Method: (§2) The assay was designed for determining stability of compound in microsomal matrix. Compound (Compound of Formula (I)) was dissolved in DMSO at 1 mg/ml. Daughter solution was prepared in methanol/water (50/50) at 30.3 ng/ml. Microsomes (from Xenotech) were diluted at 0.625 mg proteins per ml in phosphate buffer 50 mM pH 7.4.
Pre-Incubation consisted of warming microsomal solution 395 μl with 100 μl NaHCO3 (2%) at 37° C. for 7 min. Incubation was started with the addition of 5 μl of daughter solution. […]
(§3) After 10 min centrifugation at 4000 rpm, 2 μl of samples were injected into the liquid chromatography system and eluted on a Ascentis C18 column (50×2.1 mm id, 2.7 μm) with 0.1% formic acid in water (A) and 0.1% formic acid in acetonitrile (B), using the following 2 minute elution gradient: 5 to 95% B over 1.2 min, 95% B over 0.6 min and 0.1 min for re-equilibrate column, at 0.5 mL/min at 50° C.
Samples were analysed by Mass Spectrometry with an electrospray source, in positive mode and with following mass transitions: • Compound of Formula (I): 657 to 384 • Monoester of CPHPC: 499 to 226 • CPHPC: 341 to 226
Controls were made to calculate percentage of disappearance of parent but also appearance of suspected metabolite, i.e. monoester and diacidic form.

CYP2C19 = biological target: T2, CYP2C19 (Homo sapiens, UniProt P33261); assay: Cytochrome p450 inhibition assay (bactosomes, fluorogenic substrate BMC); assay type: biochemical; conditions: recombinant human CYP (Cypex bactosomes)
T2 construct: purchased Cypex; host or cells: bactosomes (bacterial membranes)
T2 sequence (P33261 whole entry): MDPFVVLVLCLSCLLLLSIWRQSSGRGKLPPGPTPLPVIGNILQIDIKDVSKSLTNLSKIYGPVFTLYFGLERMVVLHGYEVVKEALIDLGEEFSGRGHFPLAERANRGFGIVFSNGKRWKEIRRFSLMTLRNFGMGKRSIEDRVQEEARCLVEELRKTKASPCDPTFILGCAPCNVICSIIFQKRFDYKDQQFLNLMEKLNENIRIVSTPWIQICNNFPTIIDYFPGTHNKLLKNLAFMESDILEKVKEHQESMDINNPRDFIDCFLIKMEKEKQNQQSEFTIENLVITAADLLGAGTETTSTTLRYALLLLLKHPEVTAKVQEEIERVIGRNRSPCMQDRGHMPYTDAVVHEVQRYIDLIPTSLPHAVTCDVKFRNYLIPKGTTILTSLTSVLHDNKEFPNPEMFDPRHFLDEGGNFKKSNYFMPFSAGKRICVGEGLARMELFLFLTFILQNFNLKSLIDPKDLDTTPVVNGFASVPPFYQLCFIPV
Method: as §1

[4] = Liver microsomal stability; assay type: in vitro ADME
Method: as §2
Pre-Incubation consisted of warming microsomal solution 395 μl with 100 μl NaHCO3 (2%) at 37° C. for 7 min. Incubation was started with the addition of 5 μl of daughter solution. 50 μl aliquots of mixture were taken at 0, 3, 6, 12 and 30 min and quenched with 150 μl acetonitrile containing internal standard.
as §3
Samples were analysed by Mass Spectrometry with an electrospray source, in positive mode and with following mass transitions: • Compound of Formula (I): 657 to 384 • Monoester of CPHPC: 499 to 226 • CPHPC: 341 to 226 […]
In vitro liver microsomal activity of was assessed using the protocol detailed above (Intestine and Liver Microsomal Assay protocol).

CYP2D6 = biological target: T3, CYP2D6 (Homo sapiens, UniProt P10635); assay: Cytochrome p450 inhibition assay (bactosomes, fluorogenic substrate MMC); assay type: biochemical; conditions: recombinant human CYP (Cypex bactosomes)
T3 construct: purchased Cypex; host or cells: bactosomes (bacterial membranes)
T3 sequence (P10635 whole entry): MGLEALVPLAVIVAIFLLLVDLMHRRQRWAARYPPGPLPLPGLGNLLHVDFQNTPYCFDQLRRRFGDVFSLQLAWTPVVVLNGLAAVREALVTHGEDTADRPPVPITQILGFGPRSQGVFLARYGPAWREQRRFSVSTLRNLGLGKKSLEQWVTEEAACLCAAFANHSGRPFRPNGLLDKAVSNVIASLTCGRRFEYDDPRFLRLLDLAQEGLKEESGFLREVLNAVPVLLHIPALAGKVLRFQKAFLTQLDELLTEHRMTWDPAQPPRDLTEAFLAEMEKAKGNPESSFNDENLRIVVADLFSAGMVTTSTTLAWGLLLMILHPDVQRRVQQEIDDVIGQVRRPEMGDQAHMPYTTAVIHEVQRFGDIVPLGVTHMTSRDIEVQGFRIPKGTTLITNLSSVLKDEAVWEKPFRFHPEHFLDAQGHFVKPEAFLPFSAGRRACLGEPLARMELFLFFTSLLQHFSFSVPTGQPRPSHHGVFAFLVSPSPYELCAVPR
Method: as §1

CYP3A4 = biological target: T4, CYP3A4 (Homo sapiens, UniProt P08684); assay: Cytochrome p450 inhibition assay (bactosomes, fluorogenic substrates 7BQ and DEF); assay type: biochemical; conditions: recombinant human CYP (Cypex bactosomes)
T4 construct: purchased Cypex; host or cells: bactosomes (bacterial membranes)
T4 sequence (P08684 whole entry): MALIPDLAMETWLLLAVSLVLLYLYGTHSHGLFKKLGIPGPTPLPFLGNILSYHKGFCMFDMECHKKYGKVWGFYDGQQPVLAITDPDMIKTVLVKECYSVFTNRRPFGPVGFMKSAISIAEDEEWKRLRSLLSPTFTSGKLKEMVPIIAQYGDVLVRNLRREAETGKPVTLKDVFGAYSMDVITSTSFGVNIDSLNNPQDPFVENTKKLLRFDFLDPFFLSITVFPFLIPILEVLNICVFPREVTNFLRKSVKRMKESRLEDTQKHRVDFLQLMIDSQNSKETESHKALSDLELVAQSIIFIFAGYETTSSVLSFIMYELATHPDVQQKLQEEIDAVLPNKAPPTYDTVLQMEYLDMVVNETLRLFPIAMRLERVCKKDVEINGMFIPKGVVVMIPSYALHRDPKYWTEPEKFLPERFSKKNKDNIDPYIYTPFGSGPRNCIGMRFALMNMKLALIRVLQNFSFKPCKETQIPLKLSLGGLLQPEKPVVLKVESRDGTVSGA
Method: The assay was designed to evaluate inhibition on cytochrome P450 (CYP) 3A4, 2C9, 2C19, 1A2 and 2D6 enzymes from bactosomes source using fluorogenic substrates. Compound (compound of Formula (I) or Comparator Compound) was dissolved in methanol at 1.65 mM. Daughter solutions were prepared in methanol at 660, 264, 106, 42, 17, 6.8, 2.7, 1.1 and 0.43 μM. NADPH cofactor was prepared with Glucose-6-phosphate (7.8 mg), Glucose-6-phosphate dehydrogenase (6 units), NADP (1.7 mg) per 1 mL in NaHCO3 2%. Substrate preparation was as follows: • 7-Methoxy-4-triFluoromethyl Coumarin-3-Acetic acid ethyl ester (FCA): 12.5 mM in acetonitrile • EthoxyResorufin (ER): 0.05 mM in acetonitrile • 4-MethylaminoMethyl-7-Methoxy Coumarin (MMC): 2.5 mM in methanol • 3-Butyryl-7Methoxy Coumarin (BMC): 2.5 mM in DMSO • 7-BenzyloxyQuinoline (7BQ): 2.5 mM in acetonitrile • DiEthoxyFluorescein (DEF): 0.1 mM in acetonitrile Bactosomes (Cypex source) at the concentration of 10 mg of protein per ml were diluted in phosphate buffer 50 mM pH7.4: • 0.33 ml of bactosomes CYP2C9 with 23.8 ml of buffer and 0.11 ml of FCA • 0.33 ml of bactosomes CYP1A2 with 23.6 ml of buffer and 0.275 ml of ER • 0.33 ml of bactosomes CYP2D6 with 23.8 ml of buffer and 0.11 ml of MMC • 0.33 ml of bactosomes CYP2C19 with 23.8 ml of buffer and 0.11 ml of BMC • 0.33 ml of bactosomes CYP3[…] with 23.6 ml of buffer and 0.275 ml of 7BQ • 0.33 ml of bactosomes CYP3[…] with 23.6 ml of buffer and 0.275 ml of DEF Pre-Incubation consisted in mixing 5 μl of compound solution with 220 μl diluted bactosomes and warming it at 37° C. for 10 min. Incubation was started with the addition of 25 μl of NADPH. Then fluorescence of substrate metabolite was read in a SAFIRE instrument (from Tecan) for 5 min: • FCA (2C9): Excitation at 410 nm and Emission at 510 nm • ER (1A2): Excitation at 530 nm and Emission at 590 nm • MMC (2D6): Excitation at 410 nm and Emission at 485 nm • BMC (2C19): Excitation at 410 nm and Emission at 465 nm • 7BQ (3A4H): Excitation at 410 nm and Emission at 530 nm • DEF (3A4L): Excitation at 485 nm and Emission at 530 nm Plotting of inhibition of substrate production against compound concentration allowed the determination of IC50 values.

CYP2C9 = biological target: T5, CYP2C9 (Homo sapiens, UniProt P11712); assay: Cytochrome p450 inhibition assay (bactosomes, fluorogenic substrate FCA); assay type: biochemical; conditions: recombinant human CYP (Cypex bactosomes)
T5 construct: purchased Cypex; host or cells: bactosomes (bacterial membranes)
T5 sequence (P11712 whole entry): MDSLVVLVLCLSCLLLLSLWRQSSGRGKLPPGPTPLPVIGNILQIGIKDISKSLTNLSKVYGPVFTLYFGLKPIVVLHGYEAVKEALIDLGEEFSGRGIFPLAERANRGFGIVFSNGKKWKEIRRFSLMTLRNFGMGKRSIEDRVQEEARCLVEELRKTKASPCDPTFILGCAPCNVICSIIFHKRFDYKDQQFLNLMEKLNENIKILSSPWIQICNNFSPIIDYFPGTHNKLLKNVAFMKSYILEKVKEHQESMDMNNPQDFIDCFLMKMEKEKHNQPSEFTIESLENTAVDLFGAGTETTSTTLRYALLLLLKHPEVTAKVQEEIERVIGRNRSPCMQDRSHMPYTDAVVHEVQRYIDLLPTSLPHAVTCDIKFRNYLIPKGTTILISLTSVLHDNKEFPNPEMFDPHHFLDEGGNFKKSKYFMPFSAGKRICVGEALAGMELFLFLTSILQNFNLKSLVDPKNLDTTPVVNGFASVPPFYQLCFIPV
Method: as §1

[5] = substrate 7BQ, read-out: IC50 CYP3A4 (7BQ)
[6] = substrate DEF, read-out: IC50 CYP3A4 (DEF)

| IC50 (CYP1A2) [µM] | Solubility in biologically relevant media ([1]; biologically relevant media) | solubility at 4 h ([1]; FaSSIF (Simulated Fasted State Intestinal Fluid pH 6.5)) [µg/mL] | solubility at 4 h ([1]; FeSSIF (Simulated Fed State Intestinal Fluid pH 6.5)) [µg/mL] | solubility at 4 h ([1]; SGF (Simulated Gastric Fluid pH 1.6)) [µg/mL] | solubility at 4 h ([1]; water (purified water), Water) [µg/mL] | Compound hydrolysed after 24 h [2] | Rate of hydrolysis in human intestinal microsomes [3] | IC50 (CYP2C19) [µM] | Rate of hydrolysis to CPHPC in human liver microsomes [4] | IC50 (CYP2D6) [µM] | IC50 (CYP3A4; [5]) [µM] | IC50 (CYP3A4; [6]) [µM] | IC50 (CYP2C9) [µM] | SMILES |
| --- | --- | --- | --- | --- | --- | --- | --- | --- | --- | --- | --- | --- | --- | --- |
| > 33 | highly soluble | 4400 | 5000 | 5200 | 5500 | Less than 20% | low rate of hydrolysis | > 33 | high rate of hydrolysis | > 33 | > 33 | > 33 | > 33 | O=C(OCOC(=O)[C@H]1CCCN1C(=O)CCCCC(=O)N1CCC[C@@H]1C(=O)OCOC(=O)OC1CCOCC1)OC1CCOCC1 [Compound of Formula (I), (2R,2′R)-Bis(((((tetrahydro-2H-pyran-4-yl)oxy)carbonyl)oxy)methyl) 1,1′-adipoylbis(pyrrolidine-2-carboxylate)] |
| > 33 | – | – | – | – | – | – | – | > 33 | – | > 33 | > 33 | > 33 | > 33 | O=C(OCOC(=O)[C@H]1CCCN1C(=O)CCCCC(=O)N1CCC[C@@H]1C(=O)O)OC1CCOCC1 [mono-ester derivative, (R)-1-(6-oxo-6-((R)-2-((((((tetrahydro-2H-pyran-4-yl)oxy)carbonyl)oxy)methoxy)carbonyl)pyrrolidin-1-yl)hexanoyl)pyrrolidine-2-carboxylic acid] |
